Entries after “also recorded” stand apart in the source; their conditions may differ. Read-outs that look alike come from different tables or passages of the source.
Experiments:
N2a cells = assay: Cell viability assay (MTT) in uninfected N2a cells; assay type: cell-based, mouse; details: for % Cell Viability (±SEM) 50 nM / % Cell Viability (±SEM) 200 nM / % Cell Viability (±SEM) 500 nM: seven days, N2a, MTT, versus untreated control; for % Cell Viability (±SEM) 500 nM / Cytotoxicity for uninfected neuroblastoma (N2a) cells, in words: 500 nM
Description: Uninfected N2a cells were identically seeded onto six-well plates containing MEM (3 mL, supplemented as above). […] Medium was exchanged, together with the compound, every three days. After seven days, thiazolyl blue (300 μL, MTT, 3-[4,5-dimethylthiazol-2-yl]-2,5-diphenyltetrazolium bromide, Sigma-Aldrich) in PBS (5 mgmL^−1), previously sterile filtered, was added. Cells were incubated at 37° C. for 5 h. The medium was removed, and DMSO (3 mL) was added and repeatedly aspirated to solubilize the converted dye.

[1] = patients, cited from earlier work
PrP^Sc in ScGT1 cells = PrP^Sc in ScGT1 cells (Mus musculus, UniProt P04925); assay type: cell-based
MRC-5 fibroblast cells = details: cited from earlier work
neuroblastoma cells = details: mouse

PrP^Sc in ScGT1 cells, sequence (P04925 23-230 limits assumed): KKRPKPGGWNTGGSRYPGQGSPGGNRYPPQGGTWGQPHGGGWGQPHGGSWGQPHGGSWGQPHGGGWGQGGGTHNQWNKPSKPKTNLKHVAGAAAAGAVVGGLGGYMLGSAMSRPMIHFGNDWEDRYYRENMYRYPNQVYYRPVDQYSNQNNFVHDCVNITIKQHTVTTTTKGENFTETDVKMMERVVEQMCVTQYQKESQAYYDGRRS

SMILES | % Cell Viability (±SEM) 50 nM (N2a cells) | % Cell Viability (±SEM) 200 nM (N2a cells) | % Cell Viability (±SEM) 500 nM (N2a cells) | other results
COc1ccc2nc3cc(Cl)ccc3c(NCCCN(C)CCCNc3c4ccc(Cl)cc4nc4ccc(OC)cc34)c2c1 [Compound 14] | 73(±2) % | 59(±8) % | 1(±1) % | 
CSc1ccc2c(c1)N(CCC1CCCCN1C)c1ccccc1S2 (stereo not drawn) [thioridazine] |  |  |  | brain concentration ([1]; 300 mg daily): 20 µM; brain concentration ([1]; daily oral dosage of 800 mg, post mortem brain samples): more than 80 μM
COc1ccc2nc3cc(Cl)ccc3c(NCCCCN(CCCNc3c4ccc(Cl)cc4nc4ccc(OC)cc34)C(=O)CNC(=O)[C@H](C)NC(=O)OC(C)(C)C)c2c1 [Compound 19] | 88(±18) % | 78(±13) % | 70(±12) % | 
COc1ccc2nc3cc(Cl)ccc3c(NCCCCCCCCCCNc3c4ccc(Cl)cc4nc4ccc(OC)cc34)c2c1 [Compound 4] | 99(±21) % | 95(±21) % | 90(±17) % | 
COc1ccc2nc3cc(Cl)ccc3c(NCCCCN(CCCNc3c4ccc(Cl)cc4nc4ccc(OC)cc34)C(=O)C(C)NC(=O)OC(C)(C)C)c2c1 (stereo not drawn) [Compound 17, (1-{[4-(6-chloro-2-methoxy-acridin-9-ylamino)-butyl]-[3-(6-chloro-2-methoxy-acridin-9-ylamino)-propyl]-carbamoyl}-ethyl)-carbamic acid tert-butyl ester] | 98(±12) % | 85(±6) % | 84(±3) % | Cytotoxicity for uninfected neuroblastoma (N2a) cells, in words (N2a cells): not cytotoxic
COc1ccc2nc3cc(Cl)ccc3c(NCCCNCCCNCCCNc3c4ccc(Cl)cc4nc4ccc(OC)cc34)c2c1.Cl [Compound 9] | 92(±7) % | 16(±7) % | 10(±2) % | 
COc1ccc2nc3cc(Cl)ccc3c(NCCCCCCCCNc3c4ccc(Cl)cc4nc4ccc(OC)nc34)c2n1 [Compound 21, N,N′-Bis-(7-chloro-2-methoxy-benzo[b][1,5]naphthyridin-10-yl)-octane-1,8-diamine] | 95(±3) % | 100(±6) % | 96(±5) % | melting point: 114 to 115 °C
COc1ccc2nc3cc(Cl)ccc3c(NCCCNCCCNc3c4ccc(Cl)cc4nc4ccc(OC)cc34)c2c1 [Compound 6] | 98(±5) % | 33(±1) % | 1(±1) % | 
COc1ccc2nc3cc(Cl)ccc3c(NCCNCCCNCCNc3c4ccc(Cl)cc4nc4ccc(OC)cc34)c2c1 [Compound 8] | 100(±13) % | 23(±10) % | 1(±1) % | 
COc1ccc2nc3cc(Cl)ccc3c(NCCCCCCNc3c4ccc(Cl)cc4nc4ccc(OC)cc34)c2c1 [Compound 2] | 90(±3) % | 96(±3) % | 82(±3) % | 
COc1ccc2nc3cc(Cl)ccc3c(NCCCN3CCN(CCCNc4c5ccc(Cl)cc5nc5ccc(OC)cc45)CC3)c2c1 [Compound 11, (6-chloro-2-methoxy-acridin-9-yl)-(3-{4-[3-(6-chloro-2-methoxy-acridin-9-ylamino)-propyl]-piperazin-1-yl}-propyl)-amine] | 94(±11) % | 89(±9) % | 79(±1) % | Cytotoxicity for uninfected neuroblastoma (N2a) cells, in words (N2a cells): not cytotoxic; reduction of PrP^Sc in ScGT1 cells, in words (PrP^Sc in ScGT1 cells; 100 nM to 500 nM, Western blot): dose-dependent manner; curing of ScGT1 cells after one-week incubation (PrP^Sc in ScGT1 cells; 0.5 μM or 1.0 μM, one week): could be cured of PrP^Sc; also recorded: absence of PK-resistant PrP; re-infection of cured ScGT1 cells with prion inoculum (PrP^Sc in ScGT1 cells; cured cells incubated with prion inoculum): could subsequently be re-infected; also recorded: decrease the capacity of ScGT1 cells to be re-infected; also recorded: PrP^Sc was detected; cytotoxicity to MRC-5 fibroblast cells versus non-constrained polyamine-linked bis-acridines (e.g., 7) (MRC-5 fibroblast cells): less cytotoxic
COc1ccc2nc3cc(Cl)ccc3c(NCCCCN(CCCNc3c4ccc(Cl)cc4nc4ccc(OC)cc34)C(=O)[C@H](C)N)c2c1 [Compound 16] | 100(±22) % | 59(±13) % | 0(±1) % | 
CCCN(CCCCNc1c2ccc(Cl)cc2nc2ccc(OC)cc12)CCCNc1c2ccc(Cl)cc2nc2ccc(OC)cc12 [Compound 15, N-(6-Chloro-2-methoxy-acridin-9-yl)-N′-[3-(6-chloro-2-methoxy-acridin-9-ylamino)-propyl]-N′-propyl-butane-1,4-diamine] | 100(±5) % | 77(±4) % | 0(±1) % | 
COc1ccc2nc3cc(Cl)ccc3c(NCCCCNCCCNc3c4ccc(Cl)cc4nc4ccc(OC)nc34)c2n1.Cl [Compound 20] | 100(±15) % | 100(±9) % | 88(±8) % | Cytotoxicity for uninfected neuroblastoma (N2a) cells, in words (N2a cells): nontoxic
COc1ccc2nc3cc(Cl)ccc3c(NCCOCCOCCNc3c4ccc(Cl)cc4nc4ccc(OC)cc34)c2c1 [Compound 13, N,N′-Bis-(6-chloro-2-methoxy-acridin-9-yl)-1,8-diamino-3,6-dioxaoctane] | 97(±8) % | 90(±9) % | 98(±11) % | Cytotoxicity for uninfected neuroblastoma (N2a) cells, in words (N2a cells): not cytotoxic
COc1ccc2nc3cc(Cl)ccc3c(NCCCCNc3c4ccc(Cl)cc4nc4ccc(OC)cc34)c2c1 [Compound 1] | 100(±9) % | 100(±9) % | 100(±6) % | 
COc1ccc2nc3cc(Cl)ccc3c(NCCNCCNc3c4ccc(Cl)cc4nc4ccc(OC)cc34)c2c1 [Compound 5] | 100(±20) % | 100(±9) % | 100(±18) % | 
COc1ccc2nc3cc(Cl)ccc3c(NCCCCN(CCCNc3c4ccc(Cl)cc4nc4ccc(OC)cc34)C(=O)CNC(=O)[C@H](C)N)c2c1 [Compound 18] | 96(±4) % | 93(±1) % | 0(±1) % | 
CN(C)CCCN1c2ccccc2Sc2ccc(Cl)cc21 [chlorpromazine] |  |  |  | decrease in cell population (neuroblastoma cells): 50%
COc1ccc2nc3cc(Cl)ccc3c(NCCCCCCCCNc3c4ccc(Cl)cc4nc4ccc(OC)cc34)c2c1 [Compound 3] | 100(±4) % | 100(±2) % | 97(±6) % | 
